Reference: patent publication US10624895B2, “Methods of sensitizing a patient with glioma to a therapeutic agent by administering small hairpin RNA targeting PDZ-RHOGEF” (THE TRANSLATIONAL GENOMICS RESEARCH INSTITUTE, priority 2016, dated 2020)

Test system: T98G cells overexpressing TROY
Assay: TROY-induced transwell migration with erlotinib
Format: cell-based, human
Settings: erlotinib (20 uM) 30 min prior to EGF (20 nM), 24 hours
Procedure: FIG. 40 depicts the impact of EGFR suppression by erlotinib on TROY-induced glioma cell migration. Parental T98G (copGFP) and T98G cells overexpressing TROY (TROY WT) were […] for 16 hours and placed into a transwell migration chamber. Cells were then pretreated with erlotinib (20 uM) for 30 min prior to EGF stimulation (20 nM). Cell migration was after 24 hours (* p<0.01).
Thus, the capacity of TROY to stimulate glioma cell invasion and increase TMZ and IR resistance could rely on the formation of a TROY-EGFR signaling complex. This association could activate, or potentiate, shared signaling pathways survival pathways as well as activate distinct TROY signaling pathways that mediate TROY receptor specific functional activities. Therefore, therapeutic approaches targeting TROY and/or both receptors may yield increased therapeutic benefit.

Structure (SMILES): C#Cc1cccc(Nc2ncnc3cc(OCCOC)c(OCCOC)cc23)c1 [erlotinib]
- TROY-induced glioma cell migration: suppresses TROY-induced glioma cell migration
